Active and inactive are the calls of the source. The calls are words filed in the database; no cut-off is given here.

In ChEMBL document CHEMBL2069166, “β-Lactones Inhibit N-acylethanolamine Acid Amidase by S-Acylation of the Catalytic N-Terminal Cysteine” (ACS Med Chem Lett, 2012) one finds IC50, Activity and inhibition data, which are given here for 2 compounds.

Experiment [1] addresses T1, N-acylethanolamine-hydrolyzing acid amidase (Homo sapiens, UniProt Q02083).
T1 sequence (Q02083 whole entry): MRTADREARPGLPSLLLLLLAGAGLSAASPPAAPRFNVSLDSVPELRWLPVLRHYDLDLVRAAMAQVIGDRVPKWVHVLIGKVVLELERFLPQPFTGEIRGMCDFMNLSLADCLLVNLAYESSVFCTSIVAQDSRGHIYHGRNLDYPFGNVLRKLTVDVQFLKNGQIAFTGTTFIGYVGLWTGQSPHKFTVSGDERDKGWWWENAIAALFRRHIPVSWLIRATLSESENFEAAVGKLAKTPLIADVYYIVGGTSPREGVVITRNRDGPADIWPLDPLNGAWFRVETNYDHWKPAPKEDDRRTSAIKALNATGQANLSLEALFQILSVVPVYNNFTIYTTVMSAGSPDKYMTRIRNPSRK
The experiment is described as follows: Inhibition of human recombinant His6-tagged NAAA expressed in HEK293 cells using 10-cis-heptadecenoylethanolamide as substrate after 30 mins by UPLC/MS analysis.

For experiment [2], the target named is T2, N-acylethanolamine-hydrolyzing acid amidase (Homo sapiens) (UniProt Q02083).
T2 sequence (whole entry): T1 sequence (Q02083 whole entry)
The experiment is described as follows: Binding affinity to human recombinant His6-tagged NAAA expressed in HEK293 cells assessed as formation of peptide adduct by MS/MS […] analysis. Type of experiment: cell-based.

In experiment [3] the target is T2, N-acylethanolamine-hydrolyzing acid amidase (Homo sapiens). Particulars: HEK293, 10 to 30 nM.
Experiment [4] addresses T3, Fatty-acid amide hydrolase 1 (Rattus norvegicus) (UniProt P97612).
T3 sequence (whole entry): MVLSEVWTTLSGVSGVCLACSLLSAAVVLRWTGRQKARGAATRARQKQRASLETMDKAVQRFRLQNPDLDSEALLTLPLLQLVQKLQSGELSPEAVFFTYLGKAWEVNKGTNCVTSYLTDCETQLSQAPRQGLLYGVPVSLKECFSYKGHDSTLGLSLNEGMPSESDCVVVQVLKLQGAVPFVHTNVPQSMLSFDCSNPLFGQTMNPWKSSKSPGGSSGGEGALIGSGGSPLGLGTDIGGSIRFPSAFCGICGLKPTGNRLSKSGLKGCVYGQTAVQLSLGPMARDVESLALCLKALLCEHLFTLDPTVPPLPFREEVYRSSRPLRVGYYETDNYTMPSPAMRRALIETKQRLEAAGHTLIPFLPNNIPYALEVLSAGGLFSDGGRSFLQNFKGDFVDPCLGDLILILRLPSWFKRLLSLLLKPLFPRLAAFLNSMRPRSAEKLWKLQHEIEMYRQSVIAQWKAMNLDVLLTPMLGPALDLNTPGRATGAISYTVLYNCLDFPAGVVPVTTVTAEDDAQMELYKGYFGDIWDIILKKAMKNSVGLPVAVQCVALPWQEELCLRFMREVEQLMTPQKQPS
The experiment is described as follows: Inhibition of FAAH in rat brain homogenate using [3H]anandamide as substrate up to 30 uM after 30 mins by liquid scintillation counting. In kind it is tissue-based.

Experiment [5] deals with T4, Acid ceramidase (Homo sapiens) (UniProt Q13510).
T4 sequence (whole entry): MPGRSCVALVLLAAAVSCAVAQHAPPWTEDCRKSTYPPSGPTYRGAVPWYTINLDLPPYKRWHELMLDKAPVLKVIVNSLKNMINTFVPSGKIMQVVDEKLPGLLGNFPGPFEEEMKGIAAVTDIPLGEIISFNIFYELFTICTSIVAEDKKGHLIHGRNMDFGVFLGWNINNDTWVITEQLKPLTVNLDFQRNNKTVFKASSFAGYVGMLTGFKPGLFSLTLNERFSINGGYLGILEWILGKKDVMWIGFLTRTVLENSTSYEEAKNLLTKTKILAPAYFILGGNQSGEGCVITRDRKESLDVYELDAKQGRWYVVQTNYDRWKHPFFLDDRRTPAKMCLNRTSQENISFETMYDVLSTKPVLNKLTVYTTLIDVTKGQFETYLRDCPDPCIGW
The experiment is described as follows: Inhibition of human acid ceramidase expressed in HEK293 cells up to 30 uM using N-lauroyl- ceramide substrate by UPLC/MS analysis. Type of experiment: cell-based.

The target in experiment [6] is T2, N-acylethanolamine-hydrolyzing acid amidase (Homo sapiens). The settings on record: HEK293, 100 nM.

For orientation: IC50 means the concentration at which inhibition is half-maximal. Consider `C[C@@H]1OC(=O)[C@@H]1NC(=O)CCCCCCc1ccccc1`, for which the IC50 in experiment [1] turned out to be 0.314 µM. Further, the outcome in experiment [2] was Active.

Take `C[C@@H]1OC(=O)[C@@H]1NC(=O)OCCCCCc1ccccc1`: the inhibition result in experiment [3] and in experiment [6] was “Active” in each case. Moreover, the inhibition result in experiment [4] and in experiment [5] was “inactive” each time. In experiment [1], the IC50 came out at 0.0073 µM.
